{"source": "ChEMBL document CHEMBL1134189", "about": "“Synthesis and monoamine transporter affinity of 3beta-(4-(2-pyrrolyl)phenyl)-8-azabicycl” (Bioorg Med Chem Lett, 2001)", "key": {"[1]": {"biological_target": "Sodium-dependent dopamine transporter (Rattus norvegicus, UniProt P23977)", "sequence (P23977 whole entry)": "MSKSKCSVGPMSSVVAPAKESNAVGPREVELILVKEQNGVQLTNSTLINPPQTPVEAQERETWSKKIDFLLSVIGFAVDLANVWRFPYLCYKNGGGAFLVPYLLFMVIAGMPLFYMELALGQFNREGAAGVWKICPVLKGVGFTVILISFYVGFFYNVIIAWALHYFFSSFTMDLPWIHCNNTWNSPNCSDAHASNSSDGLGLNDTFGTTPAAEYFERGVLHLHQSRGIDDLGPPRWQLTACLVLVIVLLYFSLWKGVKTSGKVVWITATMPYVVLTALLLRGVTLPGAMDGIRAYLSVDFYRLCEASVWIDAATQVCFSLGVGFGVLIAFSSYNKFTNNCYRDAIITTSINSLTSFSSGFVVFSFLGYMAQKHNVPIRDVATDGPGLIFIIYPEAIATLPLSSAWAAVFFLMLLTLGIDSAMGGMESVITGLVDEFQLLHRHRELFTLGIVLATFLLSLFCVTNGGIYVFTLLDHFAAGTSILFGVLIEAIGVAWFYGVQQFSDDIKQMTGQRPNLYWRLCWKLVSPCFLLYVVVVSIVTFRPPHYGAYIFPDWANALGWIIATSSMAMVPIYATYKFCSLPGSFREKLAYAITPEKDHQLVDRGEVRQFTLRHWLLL", "experiment": "Displacement of [125I]RTI-55 from Dopamine transporter of rat striatal membrane"}, "[2]": {"biological_target": "Monoamine transporters; serotonin & dopamine (Rattus norvegicus) (UniProt P31652+P23977)", "sequence (P23977 whole entry, looked up)": "as the sequence (P23977 whole entry) above", "sequence (P31652 whole entry, looked up)": "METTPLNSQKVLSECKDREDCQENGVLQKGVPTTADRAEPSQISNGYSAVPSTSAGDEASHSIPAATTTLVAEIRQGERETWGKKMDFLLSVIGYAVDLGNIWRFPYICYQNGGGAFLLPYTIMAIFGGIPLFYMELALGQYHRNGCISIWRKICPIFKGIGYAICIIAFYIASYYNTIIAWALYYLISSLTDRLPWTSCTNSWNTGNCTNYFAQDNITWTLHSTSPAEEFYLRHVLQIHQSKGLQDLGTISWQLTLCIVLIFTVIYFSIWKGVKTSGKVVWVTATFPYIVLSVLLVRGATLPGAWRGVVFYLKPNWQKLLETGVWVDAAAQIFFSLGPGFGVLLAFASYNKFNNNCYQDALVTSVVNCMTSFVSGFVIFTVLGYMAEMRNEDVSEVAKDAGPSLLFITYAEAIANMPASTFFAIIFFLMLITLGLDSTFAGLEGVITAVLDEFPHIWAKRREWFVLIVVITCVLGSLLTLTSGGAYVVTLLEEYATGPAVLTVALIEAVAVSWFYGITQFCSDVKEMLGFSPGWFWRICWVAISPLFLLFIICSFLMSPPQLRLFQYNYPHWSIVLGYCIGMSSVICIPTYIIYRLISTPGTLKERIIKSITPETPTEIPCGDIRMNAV", "experiment": "Relative affinity for serotonin and Dopamine transporters", "format": "protein assay"}, "[3]": {"biological_target": "Sodium-dependent serotonin transporter (Rattus norvegicus, UniProt P31652)", "sequence (P31652 whole entry)": "as the sequence (P31652 whole entry, looked up) above", "experiment": "Displacement of [3H]paroxetine from Serotonin transporter of rat frontal cortex membrane", "format": "tissue-based"}}, "data": [{"smiles": "CCOC(=O)C1C2CCC(CC1c1ccc(-c3cccn3CC)cc1)N2", "note": "(centres undefined)", "values": [{"measurement": "IC50", "setting": "[1]", "value": "> 1000", "unit": "nM"}, {"measurement": "Ratio", "setting": "[2]", "value": "> 63.7"}, {"measurement": "Ki", "setting": "[3]", "value": 15.7, "unit": "nM"}]}, {"smiles": "CCOC(=O)C1C2CCC(CC1c1ccc(-c3cccn3C)cc1)N2", "note": "(centres undefined)", "values": [{"measurement": "IC50", "setting": "[1]", "value": 614, "unit": "nM"}, {"measurement": "Ratio", "setting": "[2]", "value": 585}, {"measurement": "Ki", "setting": "[3]", "value": 1.05, "unit": "nM"}]}, {"smiles": "CCOC(=O)C1C(c2ccc3c(ccn3CC)c2)CC2CCC1N2C", "note": "(centres undefined)", "values": [{"measurement": "IC50", "setting": "[1]", "value": 1.2, "unit": "nM"}, {"measurement": "Ratio", "setting": "[2]", "value": 0.22}, {"measurement": "Ki", "setting": "[3]", "value": 5.54, "unit": "nM"}]}, {"smiles": "CCOC(=O)C1C2CCC(CC1c1ccc(-c3c(C)ccn3C)cc1)N2", "note": "(centres undefined)", "values": [{"measurement": "Ki", "setting": "[3]", "value": 48.8, "unit": "nM"}]}, {"smiles": "CCOC(=O)C1C(c2ccc(-c3c(C)ccn3C)cc2)CC2CCC1N2C", "note": "(centres undefined)", "values": [{"measurement": "IC50", "setting": "[1]", "value": "> 1000", "unit": "nM"}, {"measurement": "Ki", "setting": "[3]", "value": "> 1000", "unit": "nM"}]}, {"smiles": "CCOC(=O)C1C2CCC(CC1c1ccc(-c3ccc(C)n3C)cc1)N2", "note": "(centres undefined)", "values": [{"measurement": "IC50", "setting": "[1]", "value": 825, "unit": "nM"}, {"measurement": "Ratio", "setting": "[2]", "value": 16.8}, {"measurement": "Ki", "setting": "[3]", "value": 49.1, "unit": "nM"}]}, {"smiles": "CCOC(=O)C1C2CCC(CC1c1ccc3c(ccn3CC)c1)N2", "note": "(centres undefined)", "values": [{"measurement": "IC50", "setting": "[1]", "value": 2.37, "unit": "nM"}, {"measurement": "Ratio", "setting": "[2]", "value": 0.78}, {"measurement": "Ki", "setting": "[3]", "value": 3.04, "unit": "nM"}]}, {"smiles": "CCOC(=O)C1C(c2ccc(-c3cccn3CC)cc2)CC2CCC1N2C", "note": "(centres undefined)", "values": [{"measurement": "IC50", "setting": "[1]", "value": "> 1000", "unit": "nM"}, {"measurement": "Ratio", "setting": "[2]", "value": "> 2.97"}, {"measurement": "Ki", "setting": "[3]", "value": 337, "unit": "nM"}]}, {"smiles": "CCOC(=O)C1C2CCC(CC1c1ccc3c(ccn3C)c1)N2", "note": "(centres undefined)", "values": [{"measurement": "IC50", "setting": "[1]", "value": 2.73, "unit": "nM"}, {"measurement": "Ratio", "setting": "[2]", "value": 1.57}, {"measurement": "Ki", "setting": "[3]", "value": 1.74, "unit": "nM"}]}, {"smiles": "CCOC(=O)C1C2CCC(CC1c1ccc(-c3cccn3Cc3ccccc3)cc1)N2", "note": "(centres undefined)", "values": [{"measurement": "IC50", "setting": "[1]", "value": 32.2, "unit": "nM"}, {"measurement": "Ratio", "setting": "[2]", "value": 5.06}, {"measurement": "Ki", "setting": "[3]", "value": 6.36, "unit": "nM"}]}, {"smiles": "CCOC(=O)C1C(c2ccc(-c3cccn3C)cc2)CC2CCC1N2C", "note": "(centres undefined)", "values": [{"measurement": "IC50", "setting": "[1]", "value": 703, "unit": "nM"}, {"measurement": "Ratio", "setting": "[2]", "value": 27.4}, {"measurement": "Ki", "setting": "[3]", "value": 25.6, "unit": "nM"}]}, {"smiles": "CCOC(=O)C1C2CCC(CC1c1ccc(-c3ccc(-c4ccccc4)n3C)cc1)N2", "note": "(centres undefined)", "values": [{"measurement": "IC50", "setting": "[1]", "value": "> 1000", "unit": "nM"}, {"measurement": "Ratio", "setting": "[2]", "value": "> 8.93"}, {"measurement": "Ki", "setting": "[3]", "value": 112, "unit": "nM"}]}, {"smiles": "CCOC(=O)C1C(c2ccc3c(ccn3C)c2)CC2CCC1N2C", "note": "(centres undefined)", "values": [{"measurement": "IC50", "setting": "[1]", "value": 0.75, "unit": "nM"}, {"measurement": "Ratio", "setting": "[2]", "value": 0.26}, {"measurement": "Ki", "setting": "[3]", "value": 2.84, "unit": "nM"}]}, {"smiles": "CCOC(=O)C1C(c2ccc(-c3cccn3Cc3ccccc3)cc2)CC2CCC1N2C", "note": "(centres undefined)", "values": [{"measurement": "IC50", "setting": "[1]", "value": 58, "unit": "nM"}, {"measurement": "Ratio", "setting": "[2]", "value": 0.98}, {"measurement": "Ki", "setting": "[3]", "value": 59.2, "unit": "nM"}]}]}
